Test systems include CCRF-CEM; LXFL 529; Malme-3M; M14; TK-10; HCC 2998; HOP-18; DMS-273; HL-60; SNB-75; NCI-H226; SK-MEL-2; MOLT-4; M19-MEL.
Common to all, as to assay: NCI anticancer screen, dose series, 48 h

The structures appear in SMILES notation.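 Grown in 96-well plates, cells were treated for 48 hours with each compound at five concentrations. Insufficient inhibition: endpoint recorded as highest concentration tested. At the GI50, growth is halved.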 The source made the active and inactive calls. Rule as the data show it: active = GI50 up to about 1.1 µM and inactive = higher.

For `Cn1cnc([N+](=O)[O-])c1Sc1nc2ccccc2o1`, the GI50 in the assay on CCRF-CEM was 3.03 µM (inactive); in the assay on LXFL 529, 3.08 µM (inactive); in the assay on Malme-3M it was 5.41 µM (inactive); in the assay on M14 it was 6.35 µM (inactive); in the assay on TK-10 it was 10.5 µM (inactive); with HCC 2998, 11 µM (inactive). The GI50 in the assay with HOP-18 was 0.389 µM (active); with DMS-273 it was 3.01 µM (inactive); in the assay on HL-60, 1.51 µM (inactive); in the assay on SNB-75, 16.6 µM (inactive); in the assay on NCI-H226, 15.1 µM (inactive); in the assay on SK-MEL-2, 28.1 µM (inactive). Besides, the GI50 is 2.52 µM (inactive) with MOLT-4 and 8.43 µM (inactive) in the assay with M19-MEL.
Consider `COC(=O)[C@@]1(C(C)CC(=O)O)CCCCC1=O` (some centres not stated), for which the GI50 in the assay on CCRF-CEM, with LXFL 529, with Malme-3M, in the assay with M14, with TK-10 and with HCC 2998 was > 100 µM (inactive) each time. For the same compound, the GI50 in the assay on HOP-18 was > 100 µM (inactive); with DMS-273, 19.9 µM (inactive); in the assay with HL-60, > 100 µM (inactive); in the assay with SNB-75, > 100 µM (inactive); with NCI-H226 it was > 100 µM (inactive); in the assay on SK-MEL-2, > 100 µM (inactive). The GI50 in the assay with MOLT-4 and with M19-MEL was > 100 µM (inactive) in each case.
Consider `CCOC(=O)NC(=O)c1cn(CCOC(=O)NCCCCCCNC(=O)OCCn2cc(C(=O)NC(=O)OCC)c(=O)[nH]c2=O)c(=O)[nH]c1=O`, for which the GI50 in the assay on CCRF-CEM, with LXFL 529, in the assay on Malme-3M, with M14, with HCC 2998 and in the assay with HOP-18 was > 100 µM (inactive) throughout. For the same compound, the GI50 in the assay on DMS-273, with HL-60, in the assay on SNB-75, in the assay on NCI-H226, with SK-MEL-2 and with MOLT-4 was > 100 µM (inactive) each time. For the same compound, the GI50 in the assay with M19-MEL is > 100 µM (inactive).
In the case of `COC12C=C(C)C(CC1)CC2C(=O)O` (configuration not stated), the GI50 with CCRF-CEM, in the assay on LXFL 529, in the assay with Malme-3M, with M14, with TK-10 and with HCC 2998 was > 100 µM (inactive) in each case. The GI50 in the assay with HOP-18, in the assay with DMS-273, in the assay on HL-60, in the assay on SNB-75, in the assay on NCI-H226 and in the assay on SK-MEL-2 was > 100 µM (inactive) in each case. Also, the GI50 with MOLT-4 and in the assay on M19-MEL was > 100 µM (inactive) each time.
Take `Cc1ccc(S(=O)(=O)N2CCN(C=S)CC2)cc1`: the GI50 in the assay on CCRF-CEM, in the assay on LXFL 529, in the assay with Malme-3M, with M14, in the assay on TK-10 and in the assay with HCC 2998 was > 100 µM (inactive) each time. Besides, the GI50 in the assay on HOP-18, with DMS-273, with HL-60, in the assay with SNB-75, in the assay with SK-MEL-2 and in the assay on MOLT-4 was > 100 µM (inactive) in each case. Moreover, the GI50 in the assay on M19-MEL was > 100 µM (inactive).
For `Cc1cc(C)c(C(=O)OC(c2ccccc2)C(c2ccccc2)N2CCOCC2)c(C)c1` (configuration not stated), the GI50 with CCRF-CEM, in the assay with LXFL 529, with Malme-3M, in the assay with M14, in the assay with TK-10 and with HCC 2998 was > 100 µM (inactive) each time. Further, the GI50 was > 100 µM (inactive) in the assay on HOP-18; > 100 µM (inactive) with DMS-273; 44.6 µM (inactive) in the assay on HL-60; > 100 µM (inactive) in the assay on SNB-75; > 100 µM (inactive) in the assay on NCI-H226; > 100 µM (inactive) in the assay with SK-MEL-2. Moreover, the values for the GI50 in the assay with MOLT-4 and with M19-MEL were 93.3 µM (inactive) and > 100 µM (inactive), respectively.
As to `CN1C(=O)C2C=CC1C1CCC2N(C)C1=O` (configuration not stated), the GI50 in the assay with CCRF-CEM, with LXFL 529, in the assay on Malme-3M, in the assay on M14, in the assay with TK-10 and in the assay with HCC 2998 was > 100 µM (inactive) in each case. Further, the GI50 with HOP-18, with DMS-273, in the assay with HL-60, in the assay with SNB-75, in the assay on NCI-H226 and in the assay on SK-MEL-2 was > 100 µM (inactive) each time. Also, the GI50 with MOLT-4 and in the assay on M19-MEL was > 100 µM (inactive) throughout.
For the compound `CC(C)(C)[Si](C)(C)OC1C(=O)C[C@H]2CCCC[C@@H]12` (some centres not stated), the GI50 with CCRF-CEM, in the assay with LXFL 529, with Malme-3M, in the assay with M14, in the assay on TK-10 and in the assay with HCC 2998 was > 100 µM (inactive) in each case. For the same compound, the GI50 with HOP-18 is > 100 µM (inactive); in the assay with DMS-273, > 100 µM (inactive); in the assay with HL-60, 48.4 µM (inactive); in the assay with SNB-75, > 100 µM (inactive); in the assay with SK-MEL-2, > 100 µM (inactive); with MOLT-4, > 100 µM (inactive). Also, in the assay with M19-MEL, the GI50 is 87.9 µM (inactive).
For `O=C1/C(=C/c2ccc(Cl)cc2)CCC1CCN1CCOCC1` (configuration not stated), the GI50 is 29 µM (inactive) in the assay with CCRF-CEM; 56.4 µM (inactive) with LXFL 529; > 100 µM (inactive) in the assay with Malme-3M; > 100 µM (inactive) in the assay with M14; > 100 µM (inactive) in the assay on TK-10; 46.9 µM (inactive) with HCC 2998. Also, the GI50 in the assay with HOP-18 was > 100 µM (inactive); with DMS-273, 57 µM (inactive); in the assay with HL-60 it was 23 µM (inactive); with SNB-75, > 100 µM (inactive); in the assay with NCI-H226 it was > 100 µM (inactive); in the assay on SK-MEL-2, > 100 µM (inactive). Moreover, the figures for the GI50 in the assay with MOLT-4 and in the assay with M19-MEL were 26.1 µM (inactive) and 72.9 µM (inactive), respectively.
On to `Cn1c(=O)cc2[nH]c3ccccc3n2c1=O`, for which the GI50 in the assay on CCRF-CEM is 41.5 µM (inactive); with LXFL 529 it was 42.8 µM (inactive); with Malme-3M it was > 100 µM (inactive); with M14 it was 72.9 µM (inactive); in the assay on TK-10 it was 81.7 µM (inactive); in the assay on HCC 2998, 72.8 µM (inactive). The GI50 was 61.7 µM (inactive) in the assay on HOP-18; 25.5 µM (inactive) in the assay with DMS-273; > 100 µM (inactive) in the assay with HL-60; > 100 µM (inactive) in the assay with SNB-75; 55.6 µM (inactive) with NCI-H226; > 100 µM (inactive) in the assay with SK-MEL-2. The GI50 was > 100 µM (inactive) in the assay on MOLT-4 and 33.7 µM (inactive) with M19-MEL.

The values are drawn from ChEMBL document CHEMBL1201862, “PubChem BioAssay data set” (2004).
